Molecules are shown by their SMILES. Where only a bound is given, the exact number is not on record here.

Drawing on ChEMBL document CHEMBL1268898, “Metallocene catalyzed synthesis of fungistatic vicinal aminoalcohols under solvent free conditions” (2010), this text covers inhibition of growth for 6 compounds.

The test system of experiment [1] is Botrytis cinerea. Briefly: Fungistatic activity against Botrytis cinerea assessed as inhibition of fungal growth at 100 mg/L relative to control. To be noted: read-out: GI. The format is functional.
Experiment [2] concerns Colletotrichum gloeosporioides. The experiment can be described thus: Fungistatic activity against Colletotrichum gloeosporioides assessed as inhibition of fungal growth at 100 mg/L relative to control. It is filed as functional. To be noted: read-out: GI.

Regarding `Cc1ccc(NC(CO)c2ccccc2)cc1` (stereo unspecified), the inhibition of growth at 100 µg/mL in experiment [1] came to 63%; in experiment [2] it was 40%.

Regarding `O=[N+]([O-])c1ccc(NC(CO)c2ccccc2)cc1` (stereo unspecified), the inhibition of growth at 100 µg/mL is 69% in experiment [1] and 55% in experiment [2].

On to `Cc1ccc(NCC(C)(C)O)cc1`, for which the inhibition of growth at 100 µg/mL was 62% in experiment [1] and < 30% in experiment [2].

In the case of `Cc1ccc(NCC(O)COc2ccccc2)cc1` (stereo unspecified), the results for the inhibition of growth at 100 µg/mL in experiment [1] and in experiment [2] were 87% and 72%, respectively.

With `Cc1ccc(N(CC(O)COc2ccccc2)CC(O)COc2ccccc2)cc1` (stereo unspecified), the figures for the inhibition of growth at 100 µg/mL in experiment [1] and in experiment [2] were 53% and < 30%, respectively.

Take `CN(C)S(=O)(=O)N(SC(F)(Cl)Cl)c1ccccc1` [DICHLOFLUANID]: the inhibition of growth at 100 µg/mL in experiment [1] was > 95%.
